Reference: patent US5538945A, “Stimulation of hair growth by peptide copper complexes” (ProCyte Corporation, priority 1994, dated 1996)

Columns and labels:
Type in all cases: in vivo
[1] = test system: C3H mice (telogen hair growth phase); experiment: Stimulation of hair growth after intradermal injection of peptide-copper complexes (Example 12); conditions: peptide to copper 2:1, day 21; for Number of Animals Growing Hair: responders/injected mice
Description: The following example illustrates the stimulation of hair growth in warm-blooded animals after intradermal injection of representative peptide-copper complexes of this invention.
As in Example 11 above, the backs of C3H mice (60 days old, telogen hair growth phase) were closely clipped on day 1 using an electric clipper. A sterile saline solution containing the indicated peptide-copper complex was then injected intradermally (i.e., infiltrated under the skin) at two locations within the clipped areas of the mice. Injection at two locations provided two test locations within the clipped area of each mouse. Each injection (0.1 ml) contained between 0.75 to 1.5 mg of the peptide-copper complex within the sterile saline solution. A group of saline injected mice (0.1 ml) served as controls. Following injection of the peptide-copper complexes, indications of hair growth were seen within 10 days. The first visual signs were a darkening of the skin in a circular region surrounding the injection site. The size of this region is generally dose dependent, increasing with an increase in dose. The 0.1 ml injections used in this experiment produced a circle of hair growth measuring approximately 0.5 cm^2 to 5 cm^2 in diameter. Active hair growth occurred between 14-20 days following injection, with a maximum effect seen by day 29. Both the number of mice growing hair at the injection site and the diameter of the hair growth region were determined at day 21.

[2] = test system: C3H mice (telogen hair growth phase); experiment: Stimulation of hair growth by intradermal injection of peptide-copper complexes containing D-amino acids (Example 13); conditions: peptide to copper 1.1:1
Description: This example illustrates the stimulation of hair growth in warm-blooded animals by intradermal injection of AHK:Cu (1.1:1) utilizing a D-amino acids inplace of the naturally occurring L-amino acid.
In this experiment, the backs of C3H mice (60 days old, telogen hair growth phase) were closely clipped on day 1 using an electric clipper. A sterile saline solution containing AHK:Cu (1.1:1), or AHK:Cu (1.1:1) containing a D-amino acid, was then injected intradermally (i.e., infiltrated under the skin) at two locations within the clipped areas of the mice. Injection at two locations provided two test locations within the clipped area of each mouse. Each injection (0.1 ml) contained either 1.2 or 1.8 μmoles per injection of peptide-copper complex in the sterile saline solution. A group of saline injected mice (0.1 ml) served as controls. Following injection of peptide copper complex, indications of hair growth were seen within 10 days. The first visual signs were a darkening of the skin in a circular region surrounding the injection site. The size of this region is generally dose dependent, increasing with an increase in dose. The 0.1 ml injections used in this experiment produced a circle of hair growth measuring approximately 0.5 cm^2 to 5 cm^2 in diameter. […]
The degree of hair growth was determined by measuring the total area of hair growth at the two injection sites.

[3] = test system: telogen cycle female C3H mice; experiment: Stimulation of hair growth by topical application of a peptide-copper complex (Example 14)
Description: This example illustrates the stimulation of hair growth in warm-blooded animals by topical application of a peptide-copper complex. In this experiment, telogen cycle female C3H mice (60-65 days old) were prepared by clipping their posterior dorsal region (i.e., day 1). Topical application of peptide-copper complexes was performed twice per day (Monday-Friday) using a cotton-tipped applicator which delivered approximately 0.1 ml per treatment. The topical formulation used in this experiment contained the following components:
Topical application of the above formulation continued until the onset of follicle pigmentation, which proceeds the emergence of the hair shall. Measurement of the degree of response was performed using digital image analysis at weekly intervals, beginning at day 14. Data was expressed as the percent treatment area response using the following equation:
% treatment area=(growth area/treatment area)×100
For comparison purposes to illustrate the effect of hydrophobic amino acid residues on hair growth after topical application, AHK:Cu was compared to AHF:Cu. In this experiment, topical formulations containing AHK:Cu (1.1:1) and AHF:Cu (1.1:1) were prepared at a concentration of 0.5% and 0.1% (w/w) as indicated above. Hair growth response (i.e., "Percent Treatment Area") was determined at day 20, day 27 and at day 34.

[4] = test system: Sprague-Dawley rat pups treated with cytosine arabinoside (Ara-C); experiment: Localized maintenance of hair follicle viability by intradermal injection during Ara-C chemotherapy (Example 16); conditions: for Degree of Alopecia (mean) at the site of injection: day 10, grade 0 normal to 4 total loss of hair
Text: The following experiment illustrates the localized maintenance of hair follicle viability (i.e., growth) by intradermal (local) injection of the peptide-copper complex AHK:Cu during treatment with the chemotherapeutic agent cytosine arabinoside (Ara-C).
In this experiment, Sprague-Dawley rat pups (age 8 days) were maintained in 5 litters (n=10-11/litter) for the duration of this study. On day 0, litters received intradermal (ID) injections of AHK:Cu (1:1) in a sterile saline solution, or a saline control (1 injection per animal, 0.05 ml per injection). Each litter contained 2 normal control animals where no AHK:Cu or Ara-C was administered (i.e., saline only). On day 1, designated animals began a series of 7 consecutive daily intraperitoneal (IP) injections with Ara-C (25 mg/kg). On day 10, all animals were evaluated for the extent of hairloss (alopecia) at the injection sites using the rating identified in Example 15.
Ara-C injections caused significant hair loss by day 5-6 in most animals. In order to evaluate the stimulatory effect of AHK:Cu, the degree of hairloss was evaluated at the injection site daily. […] Table 9 presents the results as evaluated on day 10 using the previously described rating scale, with the "Degree of Alopecia" being expressed as the average response seen at the site of injection.

[5] = topical 0.1% w/w twice per day, peptide to copper 1.1:1, day 20
[6] = topical 0.1% w/w twice per day, peptide to copper 1.1:1, day 27
[7] = topical 0.1% w/w twice per day, peptide to copper 1.1:1, day 34
[8] = topical 0.5% w/w twice per day, peptide to copper 1.1:1, day 20
[9] = topical 0.5% w/w twice per day, peptide to copper 1.1:1, day 27
[10] = topical 0.5% w/w twice per day, peptide to copper 1.1:1, day 34

| Substance | Area of Hair Growth ([1]; 0.75 mg/injection intradermal) | Number of Animals Growing Hair ([1]; 0.75 mg/injection intradermal) | Area of Hair Growth ([1]; 1.50 mg/injection intradermal) | Number of Animals Growing Hair ([1]; 1.50 mg/injection intradermal) | Area of Hair Growth (total area at the two injection sites) ([2]; 1.2 μmoles per injection intradermal) | Area of Hair Growth (total area at the two injection sites) ([2]; 1.8 μmoles per injection intradermal) | Relative hair growth activity after topical administration ([3]; AHK:Cu compared to AHF:Cu, topical) | Percent Treatment Area (growth area/treatment area x 100) [3, 5] | Percent Treatment Area (growth area/treatment area x 100) [3, 6] | Percent Treatment Area (growth area/treatment area x 100) [3, 7] | Percent Treatment Area (growth area/treatment area x 100) [3, 8] | Percent Treatment Area (growth area/treatment area x 100) [3, 9] | Percent Treatment Area (growth area/treatment area x 100) [3, 10] | Degree of Alopecia (mean) at the site of injection ([4]; 0.05 mg per injection, 3.5 mg/kg intradermal day 0, peptide to copper 1:1, Ara-C 25 mg/kg IP x 7 days) | Degree of Alopecia (mean) at the site of injection ([4]; 0.10 mg per injection, 7.0 mg/kg intradermal day 0, peptide to copper 1:1, Ara-C 25 mg/kg IP x 7 days) | Degree of Alopecia (mean) at the site of injection ([4]; 0.25 mg per injection, 17.5 mg/kg intradermal day 0, peptide to copper 1:1, Ara-C 25 mg/kg IP x 7 days) | Degree of Alopecia (mean) at the site of injection ([4]; 0.50 mg per injection, 35.0 mg/kg intradermal day 0, peptide to copper 1:1, Ara-C 25 mg/kg IP x 7 days) | Histology of hair follicles at the injection site ([4]; intradermal, with Ara-C, follicles away from the injection dystrophic and non-functional) | Radius of retention of hair around the injection site ([4]; intradermal, with Ara-C, most notably in the 0.1 to 0.5 mg dose groups) |
| --- | --- | --- | --- | --- | --- | --- | --- | --- | --- | --- | --- | --- | --- | --- | --- | --- | --- | --- | --- |
| alanyl-histidyl-lysine:copper [AHK:Cu] | < 1 cm diameter | 1/4 | > 1 cm diameter | 4/4 | 3.07 ± 0.76 | 3.24 ± 1.17 | more active in stimulating hair growth | 1.29 ± 1.29% | 23.07 ± 18.84% | 90.14 ± 2.96% | 75.87 ± 7.64% | 100% | 100% | 3.25 | 2.38 | 1.44 | 1.11 | normal appearing and functioning anagen hair follicles | 0.25 cm |
| alanyl-histidyl-phenylalanine:copper [AHF:Cu] | – | – | – | – | – | – | – | 0.00% | 0.00% | 12.91 ± 12.91% | 55.05 ± 17.44% | 100% | 100% | – | – | – | – | – | – |
